Data from patent US9511070B2, “Heterocyclyl carboxamides for treating viral diseases” (NOVADRUG, LLC, priority 2012, dated 2016).
Entries after “also recorded” stand apart in the source; their conditions may differ.

Key:
JFH-1 HCV [1] = test: Co-therapy treatment for HCV infection (intracellular HCV RNA, with and without IFN-β-1b); type: cell-based, Hepatitis C virus; settings: for Fold Inhibition: vs untreated control
Experimental: (§1) Briefly, 6×10^3 Huh7-1 cells are incubated overnight in each well of collagen-coated BioCoat 96-well plates (BD Biosciences, Bedford, Mass.) in 0.2 ml 10% medium composed of Dulbecco's modified Eagle's medium supplemented with 10% fetal bovine serum. Subsequently, at 2 day intervals, the cultures are replenished with fresh 0.2 ml 10% medium. After the cultures become confluent, they continue to be replenished at 2 day intervals with fresh 0.2 ml 10% medium that also includes 1% dimethyl sulfoxide (DMSO). After 20 days of these replenishments, the Huh7-1 cultures are incubated with fresh 1% medium (same as 10% medium except that the serum level is 1%) containing HCV at a multiplicity of infection (MOI) of 0.05 focus forming units (ffu)/cell. The HCV (JFH-lwt Huh7) stock titer is 1.5×10^5 ffu/mL. The next day (day 1 post-infection) and 2 days later (day 3 post-infection) the media are replenished with fresh 1% medium containing the test compounds dissolved in DMSO. On the 5th day of treatment with the compounds, cell lysates are collected for RNA isolation and Real Time-quantitative Reverse Transcription Polymerase Chain Reaction (RT-qPCR) and culture media are collected for cytotoxicity analysis.
(§2) Total RNA is isolated from cells by the guanidine thiocyanate method using standard protocols. One μg RNA is used for cDNA synthesis using TaqMan reverse transcription reagents (Applied Biosystems, Foster City, Calif.) followed by real-time PCR using an Applied Biosystems 7300 real-time thermocycler. Thermal cycling consists of initial denaturation of 10 min at 95° C. followed by 40 cycles of denaturation (15 s at 95° C.) and annealing/extension (1 m at 60° C.). HCV and human glyceraldehyde-3-phosphate dehydrogenase (GAPDH) RNA levels are determined relative to a standard curve of serial dilutions of plasmid containing JFH-1 HCV or GAPDH cDNA. The PCR primers used to detect GAPDH and HCV are: GAPDH (NMX002046) 5′-[…]-3′(SEQ ID NO: 16) (sense) and 5′-[…]-3′(SEQ ID NO: 17) (anti-sense) JFH-1 HCV (AB047639) 5′-[…]-3′(SEQ ID NO: 18) (sense) and 5′-[…]-3′(SEQ ID NO: 19) (anti-sense).
Co-therapy Treatment for HCV Infection. […] The compounds described herein are tested to determine whether they increase the efficacy of either RBV, IFN-β-1b, or a combination thereof. Using the protocol described for determining chemical-evoked reduction in intracellular HCV RNA, the cells are treated with and without 10 U/mL IFN-β-1b in combination with 2.5 or 10 μM of the compounds described herein and for comparison with 10 μM MA and 80 μM RBV.

JFH-1 HCV [2] = settings: viral titer at 5 μM or 15 μM compared to untreated control
Description: In vitro assay for anti-HCV efficacy. HCV studies typically involve infected patients and chimpanzees. However, recently, a robust HCV infection system was developed with cells derived from the Huh-7 human hepatoma cell line. It is based on the unique JFH-1 HCV consensus cDNA derived from an HCV patient. Using reverse genetics, the infectious virus can be rescued from this HCV clone. The recovered viable JFH virus can be passaged serially in Huh-7 cells. For this reason, this system is amenable for evaluating the activity of test compound for their anti-HCV efficacy.
as §1, §2

[3] = tested on: Bovine Viral Diarrhea Virus strain NADL; test: Anti-BVDV efficacy, cytopathic (CPE) assay in Bovine Turbinate cells (MTT); type: cell-based; settings: cell survival at 10 μM compared to untreated control; TABLE 4(a)
Experimental: Assay for Anti-BVDV efficacy. Bovine Turbinate (BT) cells maintained as monolayers in disposable cell culture labware are used for the antiviral efficacy test. Prior to testing, host cell cultures are seeded onto the 96-well cell culture plates and used approximately 48 hours after seeding. […] The growth medium (GM) and maintenance medium (MM) include Dulbecco's Modified Eagle Media (DMEM) with L-glutamine (ATCC #30-2002), 10% Horse serum and penicillin/streptomycin (10,000 units of penicillin and 10,000 μg of streptomycin per mL, Life Technologies #15140-122 or similar) for a final concentration of 100 units penicillin and 100 μg streptomycin in the medium. Bovine Viral Diarrhea Virus strain NADL from BSLI high-titer virus stock is used. Prior to use, aliquots of the stock virus are removed and thawed from a −70° C. freezer. The BVDV is diluted in a maintenance medium (MM) to obtain 0.1 Multiplicity of Infection (MOI). Cytopathic (CPE) assay. CPE refers to degenerative changes in BT tissue culture induced by BVDV as a consequence of its multiplication. BT cell cultures are washed with PBS, and 100 μL aliquots of MM are added to the cells and incubated in a CO2 incubator for 2 hours. After incubation, the MM is removed; the cells washed again with PBS and overlaid with 100 μL of the different concentrations of test compounds. The plates are incubated in a CO2 incubator for 48 to 72 hours. […] This assay is a colorimetric assay that measures the activity of enzymes that reduce MTT to the purple color formazan dye. CPE is confirmed using an Inverted Compound Microscope.

Row | SMILES | HCV Antiviral Activity (JFH-1 HCV [2]) | other results
1 | O=C(Nc1cccc(-c2cccc(F)c2)c1)C1CCN(Cc2cccc3cccnc23)CC1 [Example 16] | ++ (“++” corresponds to ≦60% viral titer at 5 μM) | Average HCV copies/μg RNA (JFH-1 HCV [1]; 2.5 μM +IFN-β-1b (10 U/mL)): 1.1 × 10^5 copies/μg RNA; Fold Inhibition (JFH-1 HCV [1]; 2.5 μM +IFN-β-1b (10 U/mL)): 85 fold; Average HCV copies/μg RNA (JFH-1 HCV [1]; 2.5 μM, alone): 3.3 × 10^6 copies/μg RNA; Fold Inhibition (JFH-1 HCV [1]; 2.5 μM, alone): 3 fold; Average HCV copies/μg RNA (JFH-1 HCV [1]; 10 μM +IFN-β-1b (10 U/mL)): 9.6 × 10^4 copies/μg RNA; Fold Inhibition (JFH-1 HCV [1]; 10 μM +IFN-β-1b (10 U/mL)): 97 fold; Average HCV copies/μg RNA (JFH-1 HCV [1]; 10 μM, alone): 2.0 × 10^6 copies/μg RNA; Fold Inhibition (JFH-1 HCV [1]; 10 μM, alone): 5 fold; reduction of intracellular HCV RNA levels by the combination with IFN-β-1b (in words) (JFH-1 HCV [1]; combination with IFN-β-1b): more effective than that achieved with RBV; also recorded: reduces intracellular HCV RNA levels more effectively than either agent alone
2 | COc1cccc(CN2CCC(C(=O)Nc3ccc(-c4nc5ccccc5[nH]4)cc3)CC2)c1 [Example 58] | ++ (“++” corresponds to ≦60% viral titer at 5 μM) | BVDV Antiviral Activity [3]: +++ (“+++” corresponds to ≧75 cell survival at 10 μM)
3 | CCc1ccc(CN2CCC(C(=O)Nc3ccc(-c4nc5ccccc5[nH]4)cc3)CC2)o1 [Example 59] | ++ (“++” corresponds to ≦60% viral titer at 5 μM) | BVDV Antiviral Activity [3]: ++ (“++” corresponds to >50 but <75 cell survival at 10 μM)
4 | O=C(Nc1cccc(-c2cc3ccccc3[nH]2)c1)C1CCN(C(=O)c2cncs2)CC1 [Example 60] | + (“+” corresponds to ≦60% viral titer at 15 μM) | BVDV Antiviral Activity [3]: +++ (“+++” corresponds to ≧75 cell survival at 10 μM)
5 | O=C(Nc1ccc(Oc2ccccc2)nc1)C1CCN(Cc2ccccc2)CC1 [Example 77] | ++ (“++” corresponds to ≦60% viral titer at 5 μM) | 
6 | CCn1cc(CN2CCC(C(=O)Nc3cccc(-c4cccc(Cl)c4)c3)CC2)cn1 [Example 78] | ++ (“++” corresponds to ≦60% viral titer at 5 μM) | 
7 | Cc1nc(C)c(CN2CCC(C(=O)Nc3cccc(-c4cccc(F)c4)c3)CC2)nc1C [Example 79] | ++ (“++” corresponds to ≦60% viral titer at 5 μM) | 
8 | CCCn1ncc(CN2CCC(C(=O)Nc3ccccc3-c3cccc(OC)c3)CC2)c1C [Example 80] | + (“+” corresponds to ≦60% viral titer at 15 μM) | 
9 | COc1ccc(O)c(CN2CCC(C(=O)Nc3ccc(Oc4ccccc4F)cc3)CC2)c1 [Example 81] | ++ (“++” corresponds to ≦60% viral titer at 5 μM) | 
10 | CC(C)n1cc(CN2CCC(C(=O)Nc3cccc(-c4cccc(Cl)c4)c3)CC2)cn1 [Example 82] | + (“+” corresponds to ≦60% viral titer at 15 μM) | 
11 | O=C(Nc1ccc(Oc2ccccc2)nc1)C1CCN(Cc2ccc(Cl)s2)CC1 [Example 83] | ++ (“++” corresponds to ≦60% viral titer at 5 μM) | 
12 | COc1cccc(CN2CCC(C(=O)Nc3cccc(-c4cccc(F)c4)c3)CC2)c1OC [Example 84] | + (“+” corresponds to ≦60% viral titer at 15 μM) | 
13 | COc1cc(CN2CCC(C(=O)Nc3ccc(Oc4ccccc4F)cc3)CC2)ccc1O [Example 85] | ++ (“++” corresponds to ≦60% viral titer at 5 μM) | 
14 | CC(C)Cc1cc(CN2CCC(C(=O)Nc3ccc(Oc4ccccc4F)cc3)CC2)n[nH]1 [Example 86] | + (“+” corresponds to ≦60% viral titer at 15 μM) | 
15 | COc1cccc(-c2ccccc2NC(=O)C2CCN(Cc3nc(C)c(C)nc3C)CC2)c1 [Example 87] | ++ (“++” corresponds to ≦60% viral titer at 5 μM) | 
16 | COc1cccc(-c2ccccc2NC(=O)C2CCN(Cc3cc(C)ccc3C)CC2)c1 [Example 88] | + (“+” corresponds to ≦60% viral titer at 15 μM) | 

Row | SMILES | HCV Antiviral Activity (JFH-1 HCV [2]) | other results
17 | O=C(Nc1cccc(-c2cccc(F)c2)c1)C1CCN(Cc2ccc3nsnc3c2)CC1 [Example 90] | + (“+” corresponds to ≦60% viral titer at 15 μM) | 
18 | COc1cccc(CN2CCC(C(=O)Nc3cccc(-c4cccc(F)c4)c3)CC2)c1O [Example 91] | ++ (“++” corresponds to ≦60% viral titer at 5 μM) | 
19 | O=C(Nc1ccc(-c2nc3ccccc3[nH]2)cc1)C1CCN(CC2CC=CCC2)CC1 (stereo not shown) [Example 92] | + (“+” corresponds to ≦60% viral titer at 15 μM) | 
20 | C=CCn1cc(CN2CCC(C(=O)Nc3cccc(-c4cccc(F)c4)c3)CC2)c(C)n1 [Example 93] | ++ (“++” corresponds to ≦60% viral titer at 5 μM) | 
21 | Cc1ccc(CN2CCC(C(=O)Nc3ccc(Oc4ccccc4F)cc3)CC2)o1 [Example 94] | + (“+” corresponds to ≦60% viral titer at 15 μM) | 
22 | CCn1ncc(CN2CCC(C(=O)Nc3cccc(-c4cccc(F)c4)c3)CC2)c1C [Example 95] | ++ (“++” corresponds to ≦60% viral titer at 5 μM) | 
23 | O=C(Nc1ccc(-c2nc3ccccc3[nH]2)cc1)C1CCN(Cc2cccc(F)c2)CC1 [Example 96] | + (“+” corresponds to ≦60% viral titer at 15 μM) | 
24 | CCn1cc(CN2CCC(C(=O)Nc3ccc(Oc4ccccc4F)cc3)CC2)cn1 [Example 97] | ++ (“++” corresponds to ≦60% viral titer at 5 μM) | 
25 | O=C(Nc1cccc(-c2cccc(Cl)c2)c1)C1CCN(Cc2ccccn2)CC1 [Example 98] | + (“+” corresponds to ≦60% viral titer at 15 μM) | 
26 | Cc1c[nH]c2ncnc(N3CCC(C(=O)Nc4ccc(-c5nc6ccccc6[nH]5)cc4)CC3)c12 [Example 99] |  | BVDV Antiviral Activity [3]: +++ (“+++” corresponds to ≧75 cell survival at 10 μM)
27 | Cc1c[nH]c2ncnc(N3CCC(C(=O)Nc4cccc(-c5cc6ccccc6[nH]5)c4)CC3)c12 [Example 100] |  | BVDV Antiviral Activity [3]: +++ (“+++” corresponds to ≧75 cell survival at 10 μM)
28 | Cc1c[nH]c2ncnc(N3CCC(C(=O)Nc4ccc(Oc5ccccc5F)cc4)CC3)c12 [Example 101] |  | BVDV Antiviral Activity [3]: ++ (“++” corresponds to >50 but <75 cell survival at 10 μM)
29 | Cc1c[nH]c2ncnc(N3CCC(C(=O)Nc4cccc(-c5cccc(F)c5)c4)CC3)c12 [Example 102] |  | BVDV Antiviral Activity [3]: +++ (“+++” corresponds to ≧75 cell survival at 10 μM)
30 | Cc1c[nH]c2ncnc(N3CCC(C(=O)Nc4cccc(Br)c4)CC3)c12 [Example 103] |  | BVDV Antiviral Activity [3]: + (“+” corresponds to ≦50 cell survival at 10 μM, and improved survival over untreated control)
31 | NC(=O)c1ncn([C@@H]2O[C@H](CO)[C@@H](O)[C@H]2O)n1 [RBV, ribavirin, reference compound] |  | Average HCV copies/μg RNA (JFH-1 HCV [1]; 80 μM +IFN-β-1b (10 U/mL)): 1.8 × 10^5 copies/μg RNA; Fold Inhibition (JFH-1 HCV [1]; 80 μM +IFN-β-1b (10 U/mL)): 52 fold; Average HCV copies/μg RNA (JFH-1 HCV [1]; 80 μM, alone): 5.0 × 10^6 copies/μg RNA; Fold Inhibition (JFH-1 HCV [1]; 80 μM, alone): 2 fold
